Here are results for 73 compounds from the CATMoS acute toxicity set (Mansouri et al. 2021).

Where “and” joins values, the source holds several entries; their conditions need not be identical. Equal values may be shown once.

What is called LD50 is the dose expected to kill half of the subjects tested. The low end stands for a more toxic substance, the high end for a less toxic substance.

The data set is described as follows: rat acute oral toxicity. The note with it: in vivo.

As for `CCCC1CC(C)(OC(C)=O)CCO1` (stereo not drawn), the LD50 was determined as 4300 mg/kg.

Regarding `ClCCCBr`, the LD50 worked out at 930 mg/kg.

On to `O=C=Nc1ccc(OC(F)(F)F)cc1`, for which the LD50 was found to be 1520 mg/kg.

Consider `Cc1c(N)cccc1N`, for which the LD50 was determined as 1000 mg/kg.

With `CCN`, the LD50 was found to be 400 mg/kg.

`CCOP(=S)(OCC)Oc1cc(Cl)c(SC)cc1Cl`: the LD50 was found to be 9.1 mg/kg.

With `CCCCCCCCC=CCCCCCCCCOCCO`, the LD50 was determined as 2700 mg/kg.

In turn, `Cc1ccc(/N=C/N(C)/C=N/c2ccc(C)cc2C)c(C)c1` displayed an LD50 of 400 mg/kg. Against the preceding compound, the LD50 is about 6.8-fold lower.

Compound `CC(O)C(=O)O` (stereo not drawn) returned an LD50 of 3540 mg/kg.

As to `NC(=O)c1ccccc1Cl`, the LD50 worked out at 1250 mg/kg.

With `Nc1c(Cl)c(Cl)nc(C(=O)O)c1Cl`, the median lethal dose (LD50) stood at 686 mg/kg.

The compound `CC(C)(C)c1ccc(O)c(O)c1` displayed an LD50 of 815 mg/kg. This LD50 and that of the compound before are within 1.5-fold of each other.

In the case of `Cc1ccc(C)c(C)c1`, the 50% lethal dose (LD50) came to 3280 mg/kg.

With `C=CC(=O)Nc1ccccc1`, the LD50 turned out to be 300 mg/kg.

`CC(C1CC1)C(O)(Cn1cncn1)c1ccc(Cl)cc1` (stereo not drawn) had an LD50 of 350 mg/kg.

`CCCOC(C)=O` had an LD50 of 9370 mg/kg.

The compound `Nc1ncnc2c1ncn2C1CC(O)C(COP(=O)(O)OP(=O)(O)OP(=O)(O)O)O1` (stereo not drawn) returned an LD50 of 6770 mg/kg.

Turning to `N#CSCSc1nc2ccccc2s1`, the LD50 was determined as 679 mg/kg.

In turn, `C/C=C\CC1=C(C)[C@@H](OC(=O)[C@@H]2[C@@H](C=C(C)C)C2(C)C)CC1=O` had an LD50 of 1030 mg/kg.

In the case of `C=CCCCC=CCOC`, the LD50 came out at 4900 mg/kg.

With `Cc1cc(Cl)ccc1OCCCC(=O)O`, the LD50 stood at 680 mg/kg.

Consider `C=C[Si](ON=C(C)CC)(ON=C(C)CC)ON=C(C)CC`, for which the LD50 was 3520 mg/kg.

In the case of `CCC(CC)CN`, the LD50 turned out to be 310 mg/kg.

Compound `CCCCN(CC)C(=O)SCCC` yielded an LD50 of 921 mg/kg.

`N#CC(Cl)Cl` showed a median lethal dose (LD50) of 330 mg/kg. This LD50 lies about 2.8-fold lower than the previous one.

`CCCCCCCC(=O)OC`: the LD50 stood at 10100 mg/kg. Compared with the last compound, the LD50 is about 31-fold higher.

`Cc1ccc(Nc2ccc(Nc3ccc(C)cc3)c3c2C(=O)c2ccccc2C3=O)cc1` showed an LD50 of 3000 mg/kg.

Compound `Cc1cccnc1` showed an LD50 of 400 mg/kg. This LD50 is about 7.5-fold lower than that of the compound before.

`CCCCCCCCCCCCN(CCCN)CCCN` displayed an LD50 of 252 mg/kg. This LD50 is about 1.6-fold lower than that of the compound before.

As for `CCOP(=S)(OCC)Oc1nc(Cl)c(Cl)cc1Cl`, the LD50 is 108 mg/kg.

Compound `Clc1ccc(C2(Cn3cncn3)CC(Br)CO2)c(Cl)c1` (stereo not drawn) came in with a 50% lethal dose (LD50) of 328 mg/kg. This LD50 lies about 3-fold higher than the previous one.

In the case of `Ic1ccccc1`, the LD50 is 1750 mg/kg.

For the compound `C=CCOC(C)=O`, the LD50 turned out to be 130 mg/kg. This LD50 lies about 13-fold lower than the previous one.

`CCCCCCCC[Si](OCC)(OCC)OCC`: the LD50 came out at 11500 mg/kg.

Consider `CN1CCCC1=O`, for which the LD50 is 3910 mg/kg.

`CCOP(=S)(OCC)SCSCC`: the LD50 is 1 mg/kg.

Take `c1cc[n+]2c(c1)-c1cccc[n+]1CC2`: the LD50 was 220 mg/kg and 120 mg/kg.

For the compound `CCC(C(c1ccc(Cl)cc1)c1ccc(Cl)cc1)[N+](=O)[O-]` (stereo not drawn), the LD50 stood at 300 mg/kg.

Compound `COc1ccc(O)c(C(C)(C)C)c1` gave an LD50 of 2910 mg/kg. Compared with the last compound, the LD50 is about 9.7-fold higher.

In turn, `Cc1ccc(N)c(C)c1` displayed an LD50 of 467 mg/kg.

On to `O=C1C2(Cl)C3(Cl)C4(Cl)C(Cl)(Cl)C5(Cl)C3(Cl)C1(Cl)C5(Cl)C24Cl` (stereo not drawn), for which the LD50 turned out to be 91.3 mg/kg. Against the preceding compound, the LD50 is about 5.1-fold lower.

`COCCOCCOCCO` gave an LD50 of 11300 mg/kg.

In turn, `O=C(CCCN1CCC(O)(c2ccc(Cl)cc2)CC1)c1ccc(F)cc1` registered an LD50 of 128 mg/kg.

`CC(C)O` yielded an LD50 of 4710 mg/kg.

`CCCSP(=S)(OCC)Oc1ccc(SC)cc1` (stereo not drawn) yielded an LD50 of 65 mg/kg.

`CC(=O)C(C)=O` had an LD50 of 1580 mg/kg.

Consider `CCCCCCC=O`, for which the LD50 stood at 3200 mg/kg.

In turn, `ClC1=C(Cl)C2(Cl)C3C(Cl)OC(Cl)C3C1(Cl)C2(Cl)Cl` (stereo not drawn) returned an LD50 of 4.8 mg/kg.

Regarding `O=C(O)c1cccc(C(=O)O)c1`, the LD50 worked out at 10400 mg/kg.

Take `CNC(=O)Oc1ccccc1OC(C)C`: the LD50 is 41 mg/kg.

Compound `CCCSP(=O)(OCC)Oc1ccc(Br)cc1Cl` (stereo not drawn) showed an LD50 of 358 mg/kg.

`CC(C)OC(=O)COc1ccc(Cl)cc1Cl` returned an LD50 of 375 mg/kg.

For `Cc1cc(Cl)ccc1OCC(=O)O`, the LD50 stood at 700 mg/kg.

Turning to `Cc1[nH]c(=O)n(C(C)(C)C)c(=O)c1Cl`, the 50% lethal dose (LD50) was determined as 1700 mg/kg.

Take `O=Cc1ccncc1`: the LD50 turned out to be 2170 mg/kg.

As for `CC(COCC(C)OC(=O)c1ccccc1)OC(=O)c1ccccc1` (stereo not drawn), the LD50 was found to be 3300 mg/kg.

In turn, `O=C(O)c1cc2ccccc2cc1O` displayed a median lethal dose (LD50) of 809 mg/kg.

Take `CCOP(=O)(O)C(N)=O`: the LD50 came to 2080 mg/kg.

In turn, `CCCCOC(=O)CO` yielded an LD50 of 4240 mg/kg. Compared with the last compound, the LD50 is about 2-fold higher.

`O=C(O)C=CC(=O)O`: the median lethal dose (LD50) was 708 mg/kg. Compared with the last compound, the LD50 is about 6-fold lower.

For the compound `CCNc1ccccc1`, the LD50 came out at 334 mg/kg.

`Nc1ccc(Cl)cc1` displayed an LD50 of 300 mg/kg.

In the case of `Oc1cccc(O)c1`, the LD50 stood at 301 mg/kg.

Compound `CC(C)COC(=O)c1ccccc1C(=O)OCC(C)C` yielded a 50% lethal dose (LD50) of 10400 mg/kg.

With `Cc1ccncc1`, the median lethal dose (LD50) stood at 440 mg/kg. Against the preceding compound, the LD50 is about 24-fold lower.

Turning to `CC(C)CCCCCOC(=O)c1ccccc1C(=O)OCCCCCC(C)C`, the LD50 is 22000 mg/kg. Against the preceding compound, the LD50 is about 50-fold higher.

The compound `C=CCBr` gave an LD50 of 120 mg/kg.

Compound `O=[N+]([O-])c1cc(Cl)ccc1Cl` returned an LD50 of 1000 mg/kg.

In turn, `CC(=O)N[C@@H](CS)C(=O)O` displayed an LD50 of 3000 mg/kg.

For the compound `CCCCOCCOC(C)=O`, the LD50 is 1880 mg/kg. Compared with the last compound, the LD50 is about 1.6-fold lower.

The compound `N#CCO` displayed an LD50 of 8 mg/kg. Compared with the last compound, the LD50 is about 240-fold lower.

The compound `CC1(C)C(=O)N(Br)C(=O)N1Br` registered an LD50 of 250 mg/kg.

Consider `Cc1cccc(C)c1N`, for which the LD50 was determined as 840 mg/kg.
